Source: PubChem BioAssay (NCI)
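Protocol summary: plate cells (96-well), add compound at 5 concentrations, incubate 48 h, interpolate endpoints linearly. Abbreviation: GI50, concentration required for 50% inhibition of growth. Definition used: TGI = concentration required for complete inhibition of growth.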

What was measured:
Experiment in all cases: NCI anticancer screen, dose series, 48 h
SK-OV-3 ovarian = test system: SK-OV-3 ovarian
OVCAR-8 ovarian = test system: OVCAR-8 ovarian
NCI-H23 lung = test system: NCI-H23 lung
SN12C renal = test system: SN12C renal
SF-295 CNS = test system: SF-295 CNS
KM12 colon = test system: KM12 colon
NCI-H460 lung = test system: NCI-H460 lung
NCI-H226 lung = test system: NCI-H226 lung
786-0 renal = test system: 786-0 renal
SF-539 CNS = test system: SF-539 CNS
SW-620 colon = test system: SW-620 colon
BT-549 breast = test system: BT-549 breast
HS 578T breast = test system: HS 578T breast

Row | Structure (SMILES) | TGI (SK-OV-3 ovarian) [µM] | TGI (OVCAR-8 ovarian) [µM] | TGI (NCI-H23 lung) [µM] | TGI (SN12C renal) [µM] | TGI (SF-295 CNS) [µM] | TGI (KM12 colon) [µM] | TGI (NCI-H460 lung) [µM] | TGI (NCI-H226 lung) [µM] | TGI (786-0 renal) [µM] | TGI (SF-539 CNS) [µM] | TGI (SW-620 colon) [µM] | TGI (BT-549 breast) [µM] | TGI (HS 578T breast) [µM] | GI50 (SK-OV-3 ovarian) [µM] | GI50 (OVCAR-8 ovarian) [µM] | GI50 (BT-549 breast) [µM] | GI50 (NCI-H23 lung) [µM] | GI50 (SF-295 CNS) [µM] | GI50 (HS 578T breast) [µM] | GI50 (SF-539 CNS) [µM]
1 | CC(C)NC(C)Cc1ccccc1 (configuration not stated) | > 100 | > 100 | > 100 | > 100 | > 100 | > 100 | > 100 | > 100 | > 100 | > 100 | > 100 |  |  |  |  |  |  |  |  | 
2 | CNC(Cc1ccccc1)c1cccc(OC)c1O (configuration not stated) |  | > 100 | > 100 | > 100 | > 100 | > 100 | > 100 | > 100 | > 100 |  | > 100 | > 100 | > 100 |  |  |  |  |  |  | 
3 | CC1=NN(C(=O)c2ccc(Cl)cc2)C(=O)/C1=C/c1cccc(O)c1 | > 100 | > 100 | > 100 | > 100 | > 100 | > 100 | > 100 | > 100 | > 100 | > 100 | > 100 |  |  |  |  |  |  |  |  | 
4 | CCN(CC)CC(C)(C)C(=O)/C=C/c1ccc(C)cc1 | 60.6 | 31.4 |  | 19.8 | 26.1 | 19 | 19.4 |  | 23.2 | 26.2 | 15.7 |  |  |  |  |  |  |  |  | 
5 | Clc1ccc2c(NCCNc3nc(-c4ccccc4)cc(-c4ccccc4)n3)ccnc2c1 | 3.33 | 4.3 | 3.8 |  | 3.39 |  |  |  |  | 3.35 |  | 3.2 | 4.56 | 1.75 | 2.07 | 1.57 | 1.87 | 1.76 | 1.99 | 1.79
6 | CNC(=O)N(CCC#N)CCN(CCN(C(=O)NC)c1ccccc1)C(=O)NC | > 100 | > 100 | > 100 | > 100 | > 100 | > 100 | > 100 | > 100 | > 100 | > 100 | > 100 | > 100 |  |  |  |  |  |  |  | 
7 | CCNC1CC(C(C)(C)NCC)CC=C1C (configuration not stated) | > 100 | > 100 | > 100 | > 100 | > 100 | > 100 | > 100 |  | > 100 | > 100 | > 100 | > 100 |  |  |  |  |  |  |  | 
8 | C[n+]1c2ccccc2c(NC(CCC(N)=O)C(=O)O)c2ccccc21 (configuration not stated) | > 100 | > 100 | > 100 | > 100 | > 100 | > 100 | > 100 | > 100 | > 100 | > 100 | > 100 |  |  |  |  |  |  |  |  | 
9 | COC(=O)c1ccccc1CC1Cc2cc3c(cc2C1)CCC3 | > 100 | > 100 | > 100 | > 100 | > 100 | 71.1 | > 100 | > 100 | > 100 | > 100 | > 100 |  | > 100 |  |  |  |  |  |  | 
10 | OCCOCCO[P+]1(OCCOCCO)n2c3ccc2C(c2ccccc2)=C2C=CC(=N2)C(c2ccccc2)=c2ccc(n21)=C(c1ccccc1)C1=NC(=C3c2ccccc2)C=C1 | 1.79 | 2.09 | 0.629 |  | 1.03 | 0.429 | 0.886 |  | 1.51 |  | 1.31 |  | 0.379 |  |  |  |  |  |  | 
11 | Nc1nc(=O)n(C2OC(CO)C(O)C2O)cc1F (configuration not stated) | > 100 | > 100 | > 100 | > 100 | > 100 | > 100 |  | > 100 |  | > 100 | > 100 |  |  |  |  |  |  |  |  | 
12 | C=CCC1(O)c2cccc(O)c2C(=O)c2c(O)cccc21 |  | > 100 | 56.9 |  | > 100 | > 100 | > 100 | > 100 | > 100 | > 100 | > 100 | 60.7 | 63.1 |  |  |  |  |  |  | 
13 | Nc1ncnc2c1ncn2CC(OCP(=O)(O)O)Oc1ccccc1 (configuration not stated) | > 100 |  |  | > 100 | > 100 | > 100 |  | > 100 | > 100 | > 100 | > 100 |  | > 100 |  |  |  |  |  |  | 
14 | COc1ccc(C2=C(OC(C)=O)c3cccn3-c3ccccc3S2)cc1 | > 10 | > 10 | 7.73 | > 10 | 5.03 | > 10 |  |  | > 10 |  | > 10 |  |  |  |  |  |  |  |  | 
15 | CCOc1ccc(N=Cc2cc(OC)c(OC)c(OC)c2)cc1 | > 100 | > 100 | > 100 | > 100 | > 100 | > 100 | > 100 |  | > 100 | > 100 | 32.1 |  |  |  |  |  |  |  |  | 
16 | CN1N=C(c2ccncc2)OC1c1ccc(Cl)c(Cl)c1 (configuration not stated) | > 100 | > 100 | > 100 | > 100 | > 100 | > 100 | > 100 | > 100 | > 100 | > 100 | > 100 |  | > 100 |  |  |  |  |  |  | 
17 | CCC(C)(C)NC1=C(NC(C)=O)C(=O)c2ccccc2C1=O | > 75 | > 75 | 73.7 | > 75 | > 75 | > 75 | > 75 | > 75 | > 75 | > 75 | > 75 |  |  |  |  |  |  |  |  | 
18 | Cn1ncc2c(NCCc3ccccc3)nc(Cl)nc21 | 71.7 | > 100 | > 100 | > 100 | 67.7 | 85.5 | 31.1 | 76.1 | 64.2 |  | 89.1 | 78.4 | > 100 |  |  |  |  |  |  | 
19 | COc1cc(OC)c(/C=N/N=C(\N)NO)c(OC)c1 | > 100 | > 100 | > 100 | > 100 | > 100 | 96.4 | > 100 | > 100 | > 100 | > 100 | > 100 |  | > 100 |  |  |  |  |  |  | 
20 | N#Cc1c(N2CCOCC2)ncn(-c2ccccc2)c1=O | > 100 | > 100 | > 100 | > 100 | > 100 | > 100 | > 100 | > 100 | > 100 | > 100 | > 100 | > 100 |  |  |  |  |  |  |  | 
